The term Ki denotes a measure of affinity in units of concentration, obtained from inhibition or displacement. Low values mean a stronger hold on the target, high ones a looser hold on the target.

Experimental findings from US8563576B2 (Vertex Pharmaceuticals Incorporated, priority 2008, dated 2013) are described below.

SMILES strings stand for the structures. Bounds are passed on as bounds.

Assay type in all cases: biochemical
Assay [1] concerns the target PKC alpha kinase (Homo sapiens, UniProt P17252). The experiment in a line: PKC alpha kinase coupled-enzyme (NADH consumption) Ki assay. The conditions noted are these: 130 μM ATP, 4.5 nM PKC alpha kinase, 30° C. As to the method:
(§1) An assay buffer solution was prepared which consisted of 100 mM HEPES (pH 7.5), 10 mM MgCl2, 25 mM NaCl, 0.1 mM EDTA, 100 μM CaCl2 and 0.01% Brij. […] To 16 μL of this enzyme buffer, in a 384 well plate, was added 1 μL of VRT stock solution in DMSO. The mixture was allowed to equilibrate for 10 mins at 30° C. The enzyme reaction was initiated by the addition of 16 μL stock ATP solution prepared in assay buffer to a final assay concentration of 130 μM. Initial rate data was determined from the rate of change of absorbance at 340 nm (corresponding to stoichiometric consumption of NADH) using a Molecular Devices Spectramax plate reader (Sunnyvale, Calif.) over 15 mins at 30° C. […] Ki values were calculated from initial rate data by non-linear regression using the Prism software package (Prism 4.0a, Graphpad Software, San Diego, Calif.).

Assay [2] concerns the target PKC theta kinase (Homo sapiens, UniProt Q04759). Put plainly: PKC theta kinase coupled-enzyme (NADH consumption) Ki assay. To be noted: 240 μM ATP, 18 nM PKC theta kinase, 30° C. Here is the method:
as §1, with “l An” for “An”, “mM EDTA” for “mM EDTA, 100 μM CaCl2”, “To 60” for “To 16”, “added 2” for “added 1”, “of 5” for “of 16”, “of 240” for “of 130”

The target of assay [3] is PKC delta kinase (Homo sapiens, UniProt Q05655). Put plainly: PKC delta kinase coupled-enzyme (NADH consumption) Ki assay. To be noted: 150 μM ATP, 46 nM PKC delta kinase, 30° C. As to the method:
as §1, with “EDTA” for “EDTA, 100 μM CaCl2”, “150” for “130”

Chain of PKC delta kinase (Q05655 whole entry): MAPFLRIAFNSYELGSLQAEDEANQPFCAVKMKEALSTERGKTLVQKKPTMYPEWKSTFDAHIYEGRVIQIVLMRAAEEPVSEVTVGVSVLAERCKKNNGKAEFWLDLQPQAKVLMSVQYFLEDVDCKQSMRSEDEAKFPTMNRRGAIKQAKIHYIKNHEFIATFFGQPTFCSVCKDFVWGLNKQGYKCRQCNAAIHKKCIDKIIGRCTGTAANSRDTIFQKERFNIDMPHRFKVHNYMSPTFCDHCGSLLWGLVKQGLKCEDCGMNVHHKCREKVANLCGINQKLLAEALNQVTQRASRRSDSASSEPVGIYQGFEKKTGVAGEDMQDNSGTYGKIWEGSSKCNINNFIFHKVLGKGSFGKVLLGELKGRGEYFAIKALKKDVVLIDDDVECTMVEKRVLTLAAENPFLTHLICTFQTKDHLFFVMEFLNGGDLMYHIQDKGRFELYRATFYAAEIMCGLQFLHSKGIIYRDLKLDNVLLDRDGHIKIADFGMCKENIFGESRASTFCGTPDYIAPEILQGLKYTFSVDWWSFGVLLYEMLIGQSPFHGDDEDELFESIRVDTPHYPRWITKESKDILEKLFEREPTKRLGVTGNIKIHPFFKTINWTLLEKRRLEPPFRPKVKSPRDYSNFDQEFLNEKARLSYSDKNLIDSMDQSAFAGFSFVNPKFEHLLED
Chain of PKC theta kinase (Q04759 whole entry): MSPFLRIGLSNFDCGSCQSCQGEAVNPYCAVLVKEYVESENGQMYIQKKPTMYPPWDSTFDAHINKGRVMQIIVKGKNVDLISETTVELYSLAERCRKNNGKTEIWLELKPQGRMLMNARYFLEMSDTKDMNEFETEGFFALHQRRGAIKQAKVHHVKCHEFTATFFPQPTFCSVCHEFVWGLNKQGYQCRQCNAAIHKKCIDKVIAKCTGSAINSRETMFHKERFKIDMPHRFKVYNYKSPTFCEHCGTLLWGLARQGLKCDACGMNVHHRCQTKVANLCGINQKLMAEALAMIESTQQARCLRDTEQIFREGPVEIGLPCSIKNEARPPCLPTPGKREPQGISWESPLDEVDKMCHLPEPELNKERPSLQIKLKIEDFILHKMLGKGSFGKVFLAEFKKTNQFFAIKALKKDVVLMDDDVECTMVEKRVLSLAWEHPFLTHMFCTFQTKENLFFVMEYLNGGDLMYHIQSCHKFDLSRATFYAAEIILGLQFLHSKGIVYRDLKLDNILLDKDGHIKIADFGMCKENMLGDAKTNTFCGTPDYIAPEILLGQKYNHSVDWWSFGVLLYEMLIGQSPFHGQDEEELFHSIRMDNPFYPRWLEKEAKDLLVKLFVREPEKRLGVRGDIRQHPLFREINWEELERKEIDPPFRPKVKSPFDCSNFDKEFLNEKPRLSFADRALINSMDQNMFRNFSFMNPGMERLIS

As for `CC(C)C[C@H]1CN(c2csc(-c3n[nH]c4ncccc34)n2)CCN1` [Compound 3, (S)-4-(3-isobutylpiperazin-1-yl)-2-(1H-pyrazolo[3,4-b]pyridin-3-yl)thiazole], the Ki in assay [1] is greater than 1250 nM; in assay [2] it was less than 50 nM; in assay [3] it was less than 2800 nM.

Regarding `Cc1sc(N2CCN[C@@H](CC(C)C)C2)nc1-c1n[nH]c2ncccc12` [Compound 2], the values for the Ki in assay [1], in assay [2] and in assay [3] were greater than 1250 nM, less than 500 nM and greater than 2000 nM, respectively.

For the molecule `CC(C)C[C@H]1CN(c2cn(C)c(-c3n[nH]c4ncccc34)n2)CCN1` [Compound 6, 3-(4-((S)-3-isobutylpiperazin-1-yl)-1-methyl-1H-imidazol-2-yl)-1H-pyrazolo[3,4-b]pyridine], the inhibition constant (Ki) in assay [1] was greater than 1250 nM; in assay [2], greater than 700 nM; in assay [3], greater than 2000 nM.

As for `Cc1cn(C2CCNCC2)nc1-c1n[nH]c2ncccc12` [Compound 5, 3-(4-methyl-1-(piperidin-4-yl)-1H-pyrazol-3-yl)-1H-pyrazolo[3,4-b]pyridine], the Ki in assay [1] is greater than 1250 nM; in assay [2], greater than 700 nM; in assay [3], greater than 2000 nM.

In turn, `Cc1sc(N2CCCNCC2)nc1-c1n[nH]c2ncccc12` [Compound 1] registered an inhibitory constant (Ki) in assay [2] greater than 2800 nM.

In the case of `c1cnc2[nH]nc(-c3nn(C4CCNCC4)c4ccccc34)c2c1` [Compound 4, 3-(1-(piperidin-4-yl)-1H-indazol-3-yl)-1H-pyrazolo[3,4-b]pyridine], the values for the Ki in assay [1], in assay [2] and in assay [3] were greater than 1250 nM, less than 500 nM and less than 2800 nM, respectively.
